Broadly, the % inhibition is how much of the control response was suppressed. A low value points to little suppression.

In the assay the test system is drug-resistant Mycobacterium tuberculosis. The conditions noted are these: drug-resistant Mycobacterium tuberculosis growth; peptide 10 micrograms per ml; seven days.

As for `CC[C@H](C)[C@H](NC(=O)[C@H](Cc1ccc(O)cc1)NC(=O)[C@@H](NC(=O)[C@H](CCCNC(=N)N)NC(=O)[C@@H](N)CC(=O)O)C(C)C)C(=O)N[C@@H](Cc1c[nH]cn1)C(=O)N1CCC[C@H]1C(=O)N[C@@H](Cc1ccccc1)C(=O)O` [Angiotensin II], the “% inhibition” value turned out to be 0.0%.

The values above are taken from US20100197604A1, “USE OF PEPTIDE AS A THERAPEUTIC AGENT” (priority 2007, published 2010).
